{
  "source": "paper PMC10329973",
  "about": "(Clinical pharmacology in drug development, 2023)",
  "key": {"[1]": {"tested_on": "over 40 CNS targets", "settings": "cited from earlier work"}, "[2]": {"settings": "mouse; cited from earlier work"}, "[3]": {"tested_on": "healthy adult volunteers", "assay": "Single ascending dose study NP10679-101, safety and tolerability", "format": "in vivo"}, "[4]": {"assay": "Single ascending dose study NP10679-101, plasma pharmacokinetics", "format": "in vivo, human", "settings": "for half-life: healthy volunteers, SAD and MAD studies overall; for Vd: SAD"}, "[5]": {"tested_on": "GABAergic receptors", "settings": "cited from earlier work"}, "[6]": {"tested_on": "CYP3A", "settings": "ref unpublished data and Ref 35; cited from earlier work"}, "[7]": {"assay": "Plasma protein binding", "format": "in vitro ADME, mice, rats, dogs, and humans", "settings": "mouse, rat, dog, human"}, "[8]": {"tested_on": "hERG channel", "settings": "read-out: IC50, hERG channel; cited from earlier work"}, "[9]": {"settings": "mouse, minimum effective dose 2 mg/kg IP; cited from earlier work"}, "[10]": {"tested_on": "healthy adult volunteers", "assay": "Multiple ascending dose study NP10679-102, safety and tolerability", "format": "in vivo, human", "settings": "MAD"}, "[11]": {"settings": "25 mg IV once daily x 5 days, N = 6"}},
  "note": "Like-named read-outs stand apart in the source and are kept apart here.",
  "data": [
    {"smiles": "O=C1CCc2cc(OC[C@H](O)CN3CCN(c4ccc(C(F)(F)F)cc4)CC3)ccc2N1", "note": "[NP10679, (R)-6-(2-Hydroxy-3-(4-(4-(trifluoromethyl)phenyl)piperazin-1-yl)propoxy)-3,4-dihydroquinolin-2(1H)-one]", "values": [
      {"measurement": "activity at over 40 CNS targets", "setting": "[1]", "result": "lacks demonstrable activity"},
      {"measurement": "oral availability F%", "setting": "[2]", "result": 76, "unit": "%"},
      {"measurement": "dissociative symptoms or cognitive impairment (CADSS, DSST)", "setting": "[3]; SAD", "result": "no evidence"},
      {"measurement": "serious adverse events (SAEs)", "setting": "[3]; SAD", "result": "No serious adverse events"},
      {"measurement": "vital signs or ECGs", "setting": "[3]; SAD", "result": "no clinically significant changes"},
      {"measurement": "changes in mean values of HDRS, MMSE, SBQ-R, GAD-7 and CADSS", "setting": "[3]; SAD study", "result": "no detectable changes"},
      {"measurement": "subjects reaching a level 3 score on the MOAA/S", "setting": "[3]; SAD, 200 mg", "result": "no subject"},
      {"measurement": "subjects with conjunctival and scleral hyperemia", "setting": "[3]; SAD, 200 mg", "result": "3 of 6"},
      {"measurement": "subjects presenting with somnolence", "setting": "[3]; SAD, at doses of 50 mg - 200 mg", "result": "5 of 6"},
      {"measurement": "subjects presenting with somnolence", "setting": "[3]; SAD, at each of doses 5 and 15 mg", "result": "One of 6"},
      {"measurement": "blood pressure (both systolic and diastolic)", "setting": "[3]; SAD, highest two doses", "result": "non-clinically significant lower blood pressure"},
      {"measurement": "subjects describing intrusive thoughts", "setting": "[3]; SAD, single 150 mg dose", "result": "one subject"},
      {"measurement": "Bond-Lader VAS scale", "setting": "[3]; SAD, starting at 50 mg through 200 mg", "result": "moderate increases"},
      {"measurement": "half-life", "setting": "[4]", "result": "~ 20 h"},
      {"measurement": "clearance", "setting": "[4]; human, plasma, intravenous", "result": "163 to 200", "unit": "mL/min"},
      {"measurement": "half-life", "setting": "[4]; human, plasma, intravenous, half-life", "result": 20, "unit": "h"},
      {"measurement": "Vd", "setting": "[4]; human, plasma, intravenous, volume of distribution", "result": "> 221", "unit": "L"},
      {"measurement": "AUC(0-inf)", "setting": "[4]; human, plasma, iv, 5 mg", "result": "553 ± 204", "unit": "ng·h/mL"},
      {"measurement": "AUC(0-t)", "setting": "[4]; human, plasma, iv, 5 mg", "result": "335 ± 46", "unit": "ng·h/mL"},
      {"measurement": "Cmax", "setting": "[4]; human, plasma, iv, 5 mg", "result": "27 ± 15", "unit": "ng/mL"},
      {"measurement": "clearance", "setting": "[4]; human, plasma, iv, 5 mg", "result": 163, "unit": "mL/min"},
      {"measurement": "Vd", "setting": "[4]; human, plasma, iv, 5 mg, VSS, single IV infusion 5 mg, mean ± SD", "result": "435 ± 178", "unit": "L"},
      {"measurement": "Vd", "setting": "[4]; human, plasma, iv, 5 mg, Vd, area, mean, single IV infusion 5 mg", "result": 396, "unit": "L"},
      {"measurement": "AUC(0-inf)", "setting": "[4]; human, plasma, iv, 15 mg", "result": "1280 ± 227", "unit": "ng·h/mL"},
      {"measurement": "AUC(0-t)", "setting": "[4]; human, plasma, iv, 15 mg", "result": "1140 ± 233", "unit": "ng·h/mL"},
      {"measurement": "Cmax", "setting": "[4]; human, plasma, iv, 15 mg", "result": "99 ± 67", "unit": "ng/mL"},
      {"measurement": "clearance", "setting": "[4]; human, plasma, iv, 15 mg", "result": 200, "unit": "mL/min"},
      {"measurement": "Vd", "setting": "[4]; human, plasma, iv, 15 mg, VSS, single IV infusion 15 mg, mean ± SD", "result": "306 ± 41", "unit": "L"},
      {"measurement": "Vd", "setting": "[4]; human, plasma, iv, 15 mg, Vd, area, mean, single IV infusion 15 mg", "result": 346, "unit": "L"},
      {"measurement": "AUC(0-inf)", "setting": "[4]; human, plasma, iv, 50 mg", "result": "4680 ± 797", "unit": "ng·h/mL"},
      {"measurement": "AUC(0-t)", "setting": "[4]; human, plasma, iv, 50 mg", "result": "3980 ± 544", "unit": "ng·h/mL"},
      {"measurement": "Cmax", "setting": "[4]; human, plasma, iv, 50 mg", "result": "415 ± 107", "unit": "ng/mL"},
      {"measurement": "clearance", "setting": "[4]; human, plasma, iv, 50 mg", "result": 183, "unit": "mL/min"},
      {"measurement": "Vd", "setting": "[4]; human, plasma, iv, 50 mg, VSS, single IV infusion 50 mg, mean ± SD", "result": "255 ± 20", "unit": "L"},
      {"measurement": "Vd", "setting": "[4]; human, plasma, iv, 50 mg, Vd, area, mean, single IV infusion 50 mg", "result": 286, "unit": "L"},
      {"measurement": "AUC(0-inf)", "setting": "[4]; human, plasma, iv, 100 mg", "result": "9860 ± 3220", "unit": "ng·h/mL"},
      {"measurement": "AUC(0-t)", "setting": "[4]; human, plasma, iv, 100 mg", "result": "9370 ± 3090", "unit": "ng·h/mL"},
      {"measurement": "Cmax", "setting": "[4]; human, plasma, iv, 100 mg", "result": "746 ± 223", "unit": "ng/mL"},
      {"measurement": "clearance", "setting": "[4]; human, plasma, iv, 100 mg", "result": 183, "unit": "mL/min"},
      {"measurement": "Vd", "setting": "[4]; human, plasma, iv, 100 mg, VSS, single IV infusion 100 mg, mean ± SD", "result": "259 ± 57", "unit": "L"},
      {"measurement": "Vd", "setting": "[4]; human, plasma, iv, 100 mg, Vd, area, mean, single IV infusion 100 mg", "result": 317, "unit": "L"},
      {"measurement": "AUC(0-inf)", "setting": "[4]; human, plasma, iv, 150 mg", "result": "13900 ± 1280", "unit": "ng·h/mL"},
      {"measurement": "AUC(0-t)", "setting": "[4]; human, plasma, iv, 150 mg", "result": "13600 ± 1220", "unit": "ng·h/mL"},
      {"measurement": "Cmax", "setting": "[4]; human, plasma, iv, 150 mg", "result": "954 ± 370", "unit": "ng/mL"},
      {"measurement": "clearance", "setting": "[4]; human, plasma, iv, 150 mg", "result": 183, "unit": "mL/min"},
      {"measurement": "Vd", "setting": "[4]; human, plasma, iv, 150 mg, VSS, single IV infusion 150 mg, mean ± SD", "result": "250 ± 23", "unit": "L"},
      {"measurement": "Vd", "setting": "[4]; human, plasma, iv, 150 mg, Vd, area, mean, single IV infusion 150 mg", "result": 286, "unit": "L"},
      {"measurement": "AUC(0-inf)", "setting": "[4]; human, plasma, iv, 200 mg", "result": "20200 ± 4600", "unit": "ng·h/mL"},
      {"measurement": "AUC(0-t)", "setting": "[4]; human, plasma, iv, 200 mg", "result": "19700 ± 4370", "unit": "ng·h/mL"},
      {"measurement": "Cmax", "setting": "[4]; human, plasma, iv, 200 mg", "result": "2070 ± 798", "unit": "ng/mL"},
      {"measurement": "clearance", "setting": "[4]; human, plasma, iv, 200 mg", "result": 167, "unit": "mL/min"},
      {"measurement": "Vd", "setting": "[4]; human, plasma, iv, 200 mg, VSS, single IV infusion 200 mg, mean ± SD", "result": "221 ± 34", "unit": "L"},
      {"measurement": "Vd", "setting": "[4]; human, plasma, iv, 200 mg, Vd, area, mean, single IV infusion 200 mg", "result": 245, "unit": "L"},
      {"measurement": "activity at GABAergic receptors", "setting": "[5]", "result": "does not have activity"},
      {"measurement": "time-dependent inhibition of CYP3A", "setting": "[6]", "result": "does not lead to significant time-dependent inhibition"},
      {"measurement": "fraction unbound", "setting": "[7]", "result": "0.01 to 0.026"},
      {"measurement": "IC50", "setting": "[8]", "result": 620, "unit": "nM"},
      {"measurement": "AUC(0-inf)", "setting": "[9]", "result": 5690, "unit": "ng·h/mL"},
      {"measurement": "Cmax", "setting": "[9]", "result": 581, "unit": "ng/mL"},
      {"measurement": "dissociative symptoms or cognitive impairment (CADSS, DSST)", "setting": "[10]", "result": "no evidence"},
      {"measurement": "serious adverse events (SAEs)", "setting": "[10]", "result": "No serious adverse events"},
      {"measurement": "Subjects with at least one TEAE", "setting": "[10]; [11]", "result": "5 (83.3%) n (%)"},
      {"measurement": "TEAE, system organ class: Blood and lymphatic system disorders", "setting": "[10]; [11]", "result": "2 (33.3%) n (%)"},
      {"measurement": "TEAE, system organ class: Eye disorders", "setting": "[10]; [11]", "result": "0 n (%)"},
      {"measurement": "TEAE, system organ class: Gastrointestinal disorders", "setting": "[10]; [11]", "result": "0 n (%)"},
      {"measurement": "TEAE, system organ class: General disorders and administration site conditions", "setting": "[10]; [11]", "result": "1 (16.7%) n (%)"},
      {"measurement": "TEAE, system organ class: Injury, poisoning and procedural complications", "setting": "[10]; [11]", "result": "2 (33.3%) n (%)"},
      {"measurement": "TEAE, system organ class: Investigations", "setting": "[10]; [11]", "result": "1 (16.7%) n (%)"},
      {"measurement": "TEAE, system organ class: Musculoskeletal and connective tissue disorders", "setting": "[10]; [11]", "result": "0 n (%)"},
      {"measurement": "TEAE, system organ class: Nervous system disorders", "setting": "[10]; [11]", "result": "3 (50.0%) n (%)"},
      {"measurement": "TEAE, system organ class: Skin and subcutaneous tissue disorders", "setting": "[10]; [11]", "result": "0 n (%)"},
      {"measurement": "TEAE, system organ class: Vascular disorders", "setting": "[10]; [11]", "result": "0 n (%)"},
      {"measurement": "TEAE: Anaemia", "setting": "[10]; [11]", "result": "2 (33.3%) n (%)"},
      {"measurement": "TEAE: Asthenia", "setting": "[10]; [11]", "result": "0 n (%)"},
      {"measurement": "TEAE: Back pain", "setting": "[10]; [11]", "result": "0 n (%)"},
      {"measurement": "TEAE: Blood pressure diastolic decreased", "setting": "[10]; [11]", "result": "1 (16.7%) n (%)"}
    ]}
  ]
}
